What was measured:
Calcitonin receptor = molecular target: T1, Calcitonin receptor (Homo sapiens, UniProt P30988); type: cell membranes, Membrane; details: t47d; note: in other assays of this panel Not Active means under 50% inhibition at 10 µM
T1 sequence (P30988 whole entry): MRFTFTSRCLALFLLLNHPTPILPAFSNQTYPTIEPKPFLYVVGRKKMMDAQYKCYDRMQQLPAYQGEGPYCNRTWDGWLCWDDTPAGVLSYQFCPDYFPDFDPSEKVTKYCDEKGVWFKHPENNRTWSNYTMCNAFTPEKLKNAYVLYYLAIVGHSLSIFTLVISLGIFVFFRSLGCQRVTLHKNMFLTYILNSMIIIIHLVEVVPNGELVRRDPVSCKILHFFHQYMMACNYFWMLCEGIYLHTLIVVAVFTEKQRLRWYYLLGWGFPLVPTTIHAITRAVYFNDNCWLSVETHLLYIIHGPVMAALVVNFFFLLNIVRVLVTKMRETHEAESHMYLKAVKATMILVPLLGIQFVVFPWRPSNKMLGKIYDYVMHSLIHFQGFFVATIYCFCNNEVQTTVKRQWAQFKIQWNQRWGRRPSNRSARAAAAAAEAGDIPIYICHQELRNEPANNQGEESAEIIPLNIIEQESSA

[1] = molecular target: 5-hydroxytryptamine receptor 6 (Homo sapiens, UniProt P50406); type: cell membranes, HeLa, Membrane; details: for Ki: read-out: Ki; for all read-outs here: in other assays of this panel Not Active means under 50% inhibition at 10 µM
Sequence of 5-hydroxytryptamine receptor 6 (P50406 whole entry): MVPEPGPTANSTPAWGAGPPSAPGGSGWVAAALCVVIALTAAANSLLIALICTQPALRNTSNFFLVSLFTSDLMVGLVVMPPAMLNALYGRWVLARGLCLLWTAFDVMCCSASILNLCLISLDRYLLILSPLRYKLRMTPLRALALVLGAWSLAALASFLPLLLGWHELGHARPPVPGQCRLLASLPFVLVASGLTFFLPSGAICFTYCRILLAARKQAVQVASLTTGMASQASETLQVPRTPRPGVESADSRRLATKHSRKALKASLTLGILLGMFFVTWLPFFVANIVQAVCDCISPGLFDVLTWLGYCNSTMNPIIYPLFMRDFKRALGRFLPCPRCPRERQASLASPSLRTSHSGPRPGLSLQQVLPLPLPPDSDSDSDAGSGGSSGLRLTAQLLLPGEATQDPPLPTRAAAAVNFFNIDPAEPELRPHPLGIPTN

[2] = DRUGMATRIX: Sigma2 radioligand binding (ligand: [3H] Ifenprodil); type: cell membranes, Rattus norvegicus, Wistar, Brain, Membrane; details: Not Active = under 50% inhibition at 10 µM
D(3) dopamine receptor = D(3) dopamine receptor (Homo sapiens, UniProt P35462); assay: DRUGMATRIX: Dopamine D3 radioligand binding (ligand: [3H] Spiperone); type: cell membranes, CHO, Membrane; details: cho
Sequence of D(3) dopamine receptor (P35462 whole entry): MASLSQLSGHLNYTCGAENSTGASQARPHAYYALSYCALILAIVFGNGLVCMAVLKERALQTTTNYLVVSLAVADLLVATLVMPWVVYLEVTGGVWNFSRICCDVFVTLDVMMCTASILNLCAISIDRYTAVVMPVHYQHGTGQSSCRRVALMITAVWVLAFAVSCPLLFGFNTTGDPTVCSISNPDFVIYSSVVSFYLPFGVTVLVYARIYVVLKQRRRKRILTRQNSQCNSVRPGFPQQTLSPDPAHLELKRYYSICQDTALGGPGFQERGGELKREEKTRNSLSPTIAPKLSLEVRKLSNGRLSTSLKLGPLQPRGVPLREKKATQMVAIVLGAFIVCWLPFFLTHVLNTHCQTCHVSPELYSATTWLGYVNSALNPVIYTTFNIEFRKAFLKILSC

Melanocortin receptor 4 = Melanocortin receptor 4 (Homo sapiens, UniProt P32245); type: cell membranes, Membrane; details: hek293; note: in other assays of this panel Not Active means under 50% inhibition at 10 µM
Sequence of Melanocortin receptor 4 (P32245 whole entry): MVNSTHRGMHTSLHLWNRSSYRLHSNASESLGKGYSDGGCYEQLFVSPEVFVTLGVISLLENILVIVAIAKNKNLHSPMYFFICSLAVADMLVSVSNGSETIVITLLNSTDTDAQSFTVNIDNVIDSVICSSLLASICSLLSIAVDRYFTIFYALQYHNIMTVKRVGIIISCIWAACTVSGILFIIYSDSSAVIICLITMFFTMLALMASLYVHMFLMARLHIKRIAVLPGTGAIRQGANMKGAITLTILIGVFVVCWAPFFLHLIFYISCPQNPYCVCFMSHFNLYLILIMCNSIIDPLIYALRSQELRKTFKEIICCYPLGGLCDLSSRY

Melanocortin receptor 5 = Melanocortin receptor 5 (Homo sapiens, UniProt P33032); type: cell membranes, Membrane; details: hek293; note: in other assays of this panel Not Active means under 50% inhibition at 10 µM
Sequence of Melanocortin receptor 5 (P33032 whole entry): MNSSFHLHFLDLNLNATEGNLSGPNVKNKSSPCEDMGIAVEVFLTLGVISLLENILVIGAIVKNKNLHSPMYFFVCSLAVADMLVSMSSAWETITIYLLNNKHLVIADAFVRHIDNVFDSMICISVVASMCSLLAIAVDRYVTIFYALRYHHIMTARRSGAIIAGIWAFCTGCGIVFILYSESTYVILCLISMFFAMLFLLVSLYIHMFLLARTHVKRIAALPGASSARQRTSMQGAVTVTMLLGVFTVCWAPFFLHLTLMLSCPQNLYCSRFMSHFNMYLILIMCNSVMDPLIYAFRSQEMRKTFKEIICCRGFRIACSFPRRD

[3] = DRUGMATRIX: Phosphodiesterase PDE4 enzyme inhibition (substrate: [3H]cAMP + cAMP); details: u-937; Not Active = under 50% inhibition at 10 µM
[4] = molecular target: cGMP-specific 3',5'-cyclic phosphodiesterase (Homo sapiens, UniProt O76074); assay: DRUGMATRIX: Phosphodiesterase PDE5 enzyme inhibition (substrate: [3H]cGMP + cGMP); type: tissue-based; details: platelet; Not Active = under 50% inhibition at 10 µM
[5] = molecular target: T2, Receptor-type tyrosine-protein phosphatase C (Homo sapiens, UniProt P08575); set-up: species or system Escherichia coli
T2 sequence (P08575 whole entry): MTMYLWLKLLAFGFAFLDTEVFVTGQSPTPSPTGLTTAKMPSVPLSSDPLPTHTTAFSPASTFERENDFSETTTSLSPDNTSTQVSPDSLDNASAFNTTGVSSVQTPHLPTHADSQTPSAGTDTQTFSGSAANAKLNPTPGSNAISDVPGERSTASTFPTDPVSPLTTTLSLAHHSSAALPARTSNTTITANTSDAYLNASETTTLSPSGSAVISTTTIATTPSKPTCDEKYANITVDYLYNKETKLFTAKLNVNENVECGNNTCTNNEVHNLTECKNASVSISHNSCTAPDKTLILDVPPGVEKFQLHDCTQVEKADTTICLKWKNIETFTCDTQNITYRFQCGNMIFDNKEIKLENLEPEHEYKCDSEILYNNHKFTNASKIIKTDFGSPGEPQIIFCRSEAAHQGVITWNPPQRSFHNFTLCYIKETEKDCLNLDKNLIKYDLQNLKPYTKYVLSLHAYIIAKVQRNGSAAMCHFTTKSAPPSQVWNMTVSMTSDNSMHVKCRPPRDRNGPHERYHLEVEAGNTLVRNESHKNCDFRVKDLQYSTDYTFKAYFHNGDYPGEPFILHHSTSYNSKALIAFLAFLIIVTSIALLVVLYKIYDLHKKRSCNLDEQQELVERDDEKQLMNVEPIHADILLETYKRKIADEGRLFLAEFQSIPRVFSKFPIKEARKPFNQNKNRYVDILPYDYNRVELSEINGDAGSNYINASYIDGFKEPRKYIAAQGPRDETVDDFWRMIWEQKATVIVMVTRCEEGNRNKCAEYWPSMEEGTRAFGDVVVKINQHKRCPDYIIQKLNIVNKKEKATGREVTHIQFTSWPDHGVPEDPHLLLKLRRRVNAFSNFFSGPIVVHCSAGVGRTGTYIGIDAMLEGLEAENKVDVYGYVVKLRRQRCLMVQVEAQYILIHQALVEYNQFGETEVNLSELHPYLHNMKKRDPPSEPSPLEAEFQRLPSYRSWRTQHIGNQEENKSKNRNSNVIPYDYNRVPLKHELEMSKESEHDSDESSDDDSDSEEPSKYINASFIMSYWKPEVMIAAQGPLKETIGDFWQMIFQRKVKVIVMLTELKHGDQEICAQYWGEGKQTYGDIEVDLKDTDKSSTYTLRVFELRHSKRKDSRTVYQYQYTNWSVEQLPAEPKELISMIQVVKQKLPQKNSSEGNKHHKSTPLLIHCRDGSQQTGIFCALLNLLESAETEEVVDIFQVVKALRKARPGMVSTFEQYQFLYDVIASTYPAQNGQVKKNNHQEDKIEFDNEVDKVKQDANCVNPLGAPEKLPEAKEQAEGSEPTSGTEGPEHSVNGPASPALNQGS

Cytochrome P450 2C19 = Cytochrome P450 2C19 (Homo sapiens, UniProt P33261); details: bti-tn-5b1-4; note: in other assays of this panel Not Active means under 50% inhibition at 10 µM
Sequence of Cytochrome P450 2C19 (P33261 whole entry): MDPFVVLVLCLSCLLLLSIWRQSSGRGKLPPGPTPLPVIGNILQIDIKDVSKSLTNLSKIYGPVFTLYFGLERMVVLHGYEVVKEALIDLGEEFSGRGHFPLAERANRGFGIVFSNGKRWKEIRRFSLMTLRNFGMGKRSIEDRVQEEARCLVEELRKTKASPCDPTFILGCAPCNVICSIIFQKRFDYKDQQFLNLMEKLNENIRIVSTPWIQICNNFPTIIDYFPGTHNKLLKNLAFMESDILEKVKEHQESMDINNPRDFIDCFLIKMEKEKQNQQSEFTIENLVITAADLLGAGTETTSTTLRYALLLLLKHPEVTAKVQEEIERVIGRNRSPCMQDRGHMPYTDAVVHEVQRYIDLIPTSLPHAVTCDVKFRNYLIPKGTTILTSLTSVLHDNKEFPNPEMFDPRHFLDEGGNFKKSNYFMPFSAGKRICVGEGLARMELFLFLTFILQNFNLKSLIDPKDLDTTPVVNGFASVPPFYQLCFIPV

SMILES | IC50 (Calcitonin receptor) | IC50 ([1]; hela) | IC50 [2] | Ki [2] | IC50 (D(3) dopamine receptor) | IC50 (Melanocortin receptor 4) | IC50 (Melanocortin receptor 5) | IC50 [3] | Ki [3] | IC50 [4] | IC50 [5] | IC50 (Cytochrome P450 2C19) | Ki (Cytochrome P450 2C19) | IC50 ([1]; read-out: IC50) [µM] | Ki [1] [µM] | IC50 ([2]; read-out: IC50) [µM] | Ki ([2]; read-out: Ki) [µM]
Cc1cc(C)nc(NS(=O)(=O)c2ccc(N)cc2)n1 [SULFAMETHAZINE] | Not Active | Not Active | Not Active | Not Active | Not Active | Not Active | Not Active | Not Active | Not Active | Not Active | Not Active | Not Active | Not Active |  |  |  | 
CN1CCC(=C2c3ccccc3C=Cc3ccccc32)CC1 [CYPROHEPTADINE] | Not Active |  |  |  |  | Not Active | Not Active |  |  | Not Active | Not Active | Not Active | Not Active | 0.281 | 0.13 |  | 
CNC(=C[N+](=O)[O-])NCCSCc1ccc(CN(C)C)o1 [RANITIDINE] | Not Active | Not Active | Not Active | Not Active | Not Active | Not Active | Not Active | Not Active | Not Active | Not Active | Not Active | Not Active | Not Active |  |  |  | 
CC(=O)N1CCN(c2ccc(OCC3COC(Cn4ccnc4)(c4ccc(Cl)cc4Cl)O3)cc2)CC1 (centres undefined) [KETOCONAZOLE] | Not Active | Not Active |  |  | Not Active | Not Active | Not Active | Not Active | Not Active | Not Active | Not Active | Not Active | Not Active |  |  | 15.9 | 9.79
CC(C)CC(N(C)C)C1(c2ccc(Cl)cc2)CCC1 (centres undefined) [SIBUTRAMINE] | Not Active | Not Active | Not Active | Not Active | Not Active | Not Active | Not Active | Not Active | Not Active | Not Active | Not Active | Not Active | Not Active |  |  |  | 
Cc1onc(-c2ccccc2)c1-c1ccc(S(N)(=O)=O)cc1 [VALDECOXIB] | Not Active | Not Active | Not Active | Not Active | Not Active | Not Active | Not Active | Not Active | Not Active | Not Active | Not Active | Not Active | Not Active |  |  |  | 
CC/C(=C(/CC)c1ccc(O)cc1)c1ccc(O)cc1 [DIETHYLSTILBESTROL] | Not Active |  |  |  |  | Not Active | Not Active |  |  | Not Active | Not Active | Not Active | Not Active | 12.9 | 5.99 |  | 
C[C@]1(Cn2ccnn2)[C@H](C(=O)O)N2C(=O)C[C@H]2S1(=O)=O [TAZOBACTAM] | Not Active | Not Active | Not Active | Not Active | Not Active | Not Active | Not Active | Not Active | Not Active | Not Active | Not Active | Not Active | Not Active |  |  |  | 
COCCOC(=O)C1=C(C)NC(C)=C(C(=O)OC(C)C)C1c1cccc([N+](=O)[O-])c1 (centres undefined) [NIMODIPINE] | Not Active | Not Active | Not Active | Not Active | Not Active | Not Active | Not Active | Not Active | Not Active | Not Active | Not Active |  |  |  |  |  | 
C=CCN1CC[C@]23c4c5ccc(O)c4O[C@H]2C(=O)CC[C@@]3(O)[C@H]1C5 [NALOXONE] | Not Active | Not Active |  |  | Not Active | Not Active | Not Active |  |  | Not Active | Not Active |  |  |  |  |  | 
CC[C@]1(O)C[C@@H]2CN(CCc3c([nH]c4ccccc34)[C@@](C(=O)OC)(c3cc4c(cc3OC)N(C)[C@H]3[C@@](O)(C(=O)OC)[C@H](OC(C)=O)[C@]5(CC)C=CCN6CC[C@]43[C@@H]65)C2)C1 [VINBLASTINE] | Not Active | Not Active | Not Active | Not Active | Not Active | Not Active | Not Active | Not Active | Not Active | Not Active | Not Active |  |  |  |  |  | 
CC(C)NCC(O)COc1cccc2ccccc12 (centres undefined) [PROPRANOLOL] | Not Active |  |  |  | Not Active | Not Active | Not Active |  |  | Not Active | Not Active | Not Active | Not Active | 3.06 | 1.42 |  | 
CC(C)c1nc(CN(C)C(=O)N[C@H](C(=O)N[C@@H](Cc2ccccc2)C[C@H](O)[C@H](Cc2ccccc2)NC(=O)OCc2cncs2)C(C)C)cs1 [RITONAVIR] | Not Active | Not Active | Not Active | Not Active | Not Active | Not Active | Not Active | Not Active | Not Active | Not Active | Not Active |  |  |  |  |  | 
Clc1ccc2c(c1)C(N1CCNCC1)=Nc1ccccc1O2 [AMOXAPINE] | Not Active |  |  |  |  | Not Active | Not Active |  |  | Not Active | Not Active | Not Active | Not Active |  |  |  | 
CC(C)(C)c1ccc(C(O)CCCN2CCC(C(O)(c3ccccc3)c3ccccc3)CC2)cc1 (centres undefined) [TERFENADINE] | Not Active |  | Not Active | Not Active |  | Not Active | Not Active | Not Active | Not Active | Not Active | Not Active | Not Active | Not Active |  |  |  | 
O=C(c1ccc(OCCN2CCCCC2)cc1)c1c(-c2ccc(O)cc2)sc2cc(O)ccc12 [RALOXIFENE] | Not Active | Not Active |  |  |  | Not Active | Not Active | Not Active | Not Active | Not Active | Not Active |  |  |  |  | 0.385 | 0.237
COc1cc2c(c(OC)c1OC)-c1ccc(OC)c(=O)cc1[C@@H](NC(C)=O)CC2 [COLCHICINE] | Not Active | Not Active |  |  | Not Active | Not Active | Not Active |  |  | Not Active | Not Active | Not Active | Not Active |  |  |  | 
C[C@@H](N)[C@H]1CC[C@H](C(=O)Nc2ccncc2)CC1 [Y-27632] | Not Active | Not Active | Not Active | Not Active | Not Active | Not Active | Not Active | Not Active | Not Active | Not Active | Not Active |  |  |  |  |  | 
